From patent US20070167432A1, “Tricyclic triazolobenzapine derivative produced as novel crystalline substance” (MEIJI SEILA KAISHA, LTD, priority 2003, published 2007) come the findings set out here.

A short description of data set [1]: Solubility test in water (37° C.), Compound A concentration of filtrate by HPLC. The data set is classed as physicochemical. On the procedure:
By using, as test samples, the β-type crystalline material obtained in Example 1 and the α-type crystalline material obtained in Comparative Example 1, a water (37° C.) solubility test was carried out. The test sample (about 10 mg) was added to 100 mL of water (37° C.), and the mixture was stirred at 1000 rpm. The mixture was sampled at some points of time, and each sample taken out was filtered through a membrane filter (Millex LG-13 manufactured by Millipore Corp, Japan). The compound A concentration of each filtrate was determined with high-performance liquid chromatography (HPLC). The measurement conditions were as follows:
HPLC: LC-10vp series (manufactured by Shimadzu Corp. Japan)
System controller: CBM-10A
Measurement wavelength: 246 nm
Column: Mightysil RP-18 GP 4.6×250 mm (manufactured by Kanto Chemical Co., Inc., Japan)
Column temperature: Fixed temperature at around 40° C.
Mobile phase: Mixture of methanol and water (55:45)
Amount of influent: 10 μL
Internal standard solution: Acetonitrile solution of propyl paraoxybenzoate (conc.200 μg/mL)

A short description of data set [2]: Absorbability test: oral administration to cynomolgus monkeys, Compound B in blood plasma as indicator. The class given is in vivo. As to the method:
The α-type crystalline material obtained in Comparative Example 1 or the β-type crystalline material obtained in Example 1 was suspended in a 1 wt. % aqueous solution of methyl cellulose. Each suspension was orally administered to a group of cynomolgus monkeys that had not been fed one overnight (5 mg/kg, n=5). The two samples were compared, in terms of the change of Compound B concentration of blood plasma and the area under the medicine concentration in blood plasma-time curve (AUC), to evaluate the difference in absorbability between the samples. The Compound B concentration of blood plasma derived from the blood sample was determined in the following manner.
By centrifugally separating the blood (1 mL) taken from a saphenous vein (4° C., 3000 rpm, 10 minutes) in the presence of heparin, blood plasma was obtained. To this blood plasma (100 μL), a methanol solution containing an internal standard substance (sodium 7-methyl-4(5H),10-dioxo-2H-1,2,3-triazolo [4,5-c][1]benzazepine) (100 ng/mL, 100 μL) and methanol (400 μL) were added, and the mixture was stirred and was then subjected to centrifugal separation (4° C., 10000 rpm, 5 minutes). Methanol (300 μL) was added again to the supernatant, and the mixture was centrifugally separated under the same conditions as the previous manner. […]
Fluorescence detection wavelengths: Ex 270 nm, Em 466 nm […]

In the case of `COc1cc2[nH]c(=O)c3nn(C(OC(=O)OC(C)C)C(C)C)nc3c(=O)c2cc1OC` (stereo not drawn) [α-type crystalline material, 2-(1-Isopropoxycarbonyloxy-2-methylpropyl)-7,8-dimethoxy-4(5H),10-dioxo-2H-1,2,3-triazolo[4,5-c][1]benzazepine], the “solubility in solvents such as water” value in data set [1] (background statement from applicant's experiments, solvents such as water) is given as “sparingly soluble”. The absorption into organisms entry in data set [2] (background statement, administered as it is) is recorded as “cannot be easily absorbed”.
For the compound `COc1cc2[nH]c(=O)c3nn(C(OC(=O)OC(C)C)C(C)C)nc3c(=O)c2cc1OC` (stereo not drawn) [β-type crystalline material, 2-(1-Isopropoxycarbonyloxy-2-methylpropyl)-7,8-dimethoxy-4(5H),10-dioxo-2H-1,2,3-triazolo[4,5-c][1]benzazepine], in data set [1] (water 37° C.), the “water solubility compared with the α-type crystalline material” value is listed as “higher”. For the same compound, the “Compound B concentration of blood plasma compared with the α-type-crystalline-material-administered group” value in data set [2] (cynomolgus monkeys, fasted overnight, oral 5 mg/kg, suspension in 1 wt. % aqueous methyl cellulose, n=5, FIG. 6) is on record as “higher values”.
